# According to patent US20250215177A1, “BLOWING AGENT, FOAMING RESIN COMPOSITION, POLYUREA RESIN FOAM, AND PRODUCTION METHOD FOR POLYUREA RESIN FOAM” (MITSUBISHI GAS CHEMICAL COMPANY, INC., priority 2022, published 2025):
# Columns and labels:
# Format in all cases: physicochemical
# [1] = Percentage increase of mass of amine compound left to stand in air (absorption of carbon dioxide); conditions: 23° C. and 50% RH
# Excerpt: Percentage increase of mass of cyclic amine compound (a1) [% by mass]=100×amount of increase of mass of cyclic amine compound (a1)(g)/(mass of cyclic amine compound (a1)(g)+amount of increase of mass of cyclic amine compound (a1)(g)).
# […] By doing so 1,3-BAC and carbon dioxide in the air were reacted to give a blowing agent (carbonate of 1,3-BAC). At that stage, to suppress uneven reaction, the container in which the amine compound was placed was shaken as necessary so as not to leave unreacted 1,3-BAC.
# Next, the amount of increase of the mass of 1,3-BAC was measured and the percentage increase of the mass of the amine compound was calculated by the following equation.
# [2] = Amine value of amine compound (JIS K7237-1995 titration); conditions: titration with 0.1 N perchloric acid-acetic acid
# Protocol: The amine value was measured by the following measurement method according to JIS K7237-1995. • (1) 0.1 g of the amine compound was dissolved in 20 mL of acetic acid. • (2) The amine value was calculated by titrating the solution prepared in (1) above with 0.1 N perchloric acid-acetic acid solution using an automatic potentiometric titrator (AT-610 made by Kyoto Electronics Manufacturing Co., Ltd.)
# [3] = Acid dissociation constant (pKa) of amine compound (potentiometric titration); conditions: in purified water, 25±2° C.
# Protocol: The acid dissociation constant of the amine compound was measured by the following measurement method. • (1) 0.2 g of the amine compound was dissolved in 30 mL of purified water. • (2) The acid dissociation constant (pKa) was calculated by titrating the solution prepared in (1) above with 0.1 N perchloric acid-acetic acid solution using an automatic potentiometric titrator (AT-610 made by Kyoto Electronics Manufacturing Co., Ltd.). The temperature in the measurement was 25±2° C.
# [4] = Maximum endothermic temperature of amine compound (DTA); conditions: heating rate 10° C./minute, 23 to 350° C., nitrogen; evaporation of amine compound
# Protocol: The cyclic amine compound (a1) is heated at a heating rate of 10° C./minute from 23° C. to 350° C. and the temperature at which the amount of heat absorbed due to evaporation of the amine compound (a1) reaches the maximum is measured, and the temperature is defined as the maximum endothermic temperature of the amine compound (a1).
# The maximum endothermic temperature of the amine compound was measured by subjecting the amine compound to DTA as described below. First, […] of the amine compound was performed under conditions of a temperature range of 23 to 350° C., a heating rate of 10° C./minute and a nitrogen atmosphere using a differential thermogravimeter (product name DTG-60 made by Shimadzu Corporation). The temperature at which the amount of heat absorbed due to the evaporation of the amine compound was the maximum was calculated from the DTA curve obtained, and the temperature was determined as the maximum endothermic temperature of the amine compound.
# [5] = Maximum carbon dioxide (CO2) release temperature of amine compound (DSC after CO2 absorption in air); conditions: amine compound after 24 hours in air at 23° C. and 50% RH; heating rate 10° C./minute, 23 to 250° C., nitrogen
# Protocol: The cyclic amine compound (a1) with carbon dioxide absorbed is heated at a heating rate of 10° C./minute from 23° C. to 250° C., and the temperature at which the amount of heat absorbed due to desorption of carbon dioxide reaches the maximum is measured, and the temperature is defined as the maximum carbon dioxide release temperature. In this regard the cyclic amine compound (a1) with carbon dioxide absorbed may be prepared by leaving 5 mmol of the cyclic amine compound (a1) to stand in air at 23° C. and 50% RH for 24 hours.
# A carbon dioxide detector and a Petri dish were placed in an openable desiccator (inner dimension: 370 mm×260 mm×272 mm). […]
# Then the amine compound was taken out of the desiccator to give an amine compound with carbon dioxide absorbed. The maximum carbon dioxide release temperature of the amine compound with carbon dioxide absorbed was measured by subjecting the amine compound to DSC as described below. […] The temperature at which the amount of heat absorbed due to the desorption of carbon dioxide was the maximum was calculated from the DSC curve obtained, and the temperature was determined as the maximum carbon dioxide release temperature of the amine compound.
Percentage increase of mass ([1]; CO2 absorption time 10 weeks),Amine value [2],Percentage increase of mass ([1]; CO2 absorption time 1 week),pKa [3],Maximum endothermic temperature [4],Maximum CO2 release temperature [5],SMILES
22.5 % by mass,789 mgKOH/g,–,–,–,–,"NCC1CCCC(CN)C1 (stereo not shown) [1,3-BAC, 1,3-bis(aminomethyl)cyclohexane]"
–,–,44.3 % by mass,9.8,126.7 °C,103.4 °C,"NCCN [Ethylenediamine, ethylenediamine]"
–,824 mgKOH/g,–,–,–,–,"NCc1cccc(CN)c1 [MXDA, metaxylylenediamine]"
